How the values were obtained:
barnyardgrass [1] = assay: Test C flooded paddy test; assay type: in vivo, Echinochloa crus-galli; settings: for Plant response rating, Barnyardgrass: 500 g ai/ha, visual rating after 12 to 14 days
Method in brief: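 Scoring by eye, 12–14 days post-treatment, greenhouse-held plants vs. controls; 0 no effect, 100 complete control. Sprayed at 1–4 leaves (2–18 cm); paddy barnyardgrass at 2 leaves, flooded.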

giant foxtail = assay: Test A pre-/postemergence herbicide test; assay type: in vivo, Setaria faberi
Method in brief: (§1)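 Seeds sown in sandy loam received a preemergence directed soil spray of compound in non-phytotoxic solvent with surfactant; postemergence plants (2–10 cm, one- to two-leaf stage) were sprayed to runoff at the same time. After ~10 days in greenhouse, injury was rated visually versus untreated controls (0 = no effect, 100 = complete control).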

barnyardgrass [2] = assay: Test A pre-/postemergence herbicide test; assay type: in vivo, Echinochloa crus-galli
Method in brief: as §1

redroot pigweed = assay: Test A pre-/postemergence herbicide test; assay type: in vivo, Amaranthus retroflexus
Method in brief: as §1

ducksalad = assay: Test C flooded paddy test; assay type: in vivo, Heteranthera limosa; settings: for Plant response rating, Ducksalad: 500 g ai/ha, visual rating after 12 to 14 days
velvetleaf = assay: Test A pre-/postemergence herbicide test; assay type: in vivo, Abutilon theophrasti
Method in brief: as §1

[3] = 62 g ai/ha, scale 0 to 100 (0 no effect, 100 complete control)
[4] = 125 g ai/ha, scale of 0 to 100, 0 is no effect, 100 is complete control
[5] = 250 g ai/ha, scale of 0 to 100, 0 is no effect, 100 is complete control
[6] = scale 0 to 100 (0 no effect, 100 complete control)
[7] = Postemergence, 500 g ai/ha, 0 to 100 scale, 0 no effect, 100 complete control
[8] = Postemergence, 2000 g ai/ha, 0 to 100 scale, 0 no effect, 100 complete control
[9] = Preemergence, 500 g ai/ha, visual rating, 0 to 100 scale (0 no effect, 100 complete control)
[10] = Preemergence, 2000 g ai/ha, 0 to 100 scale, 0 no effect, 100 complete control
[11] = Preemergence, 2000 g ai/ha, visual rating, 0 to 100 scale (0 no effect, 100 complete control)
[12] = 125 g ai/ha, scale 0 to 100 (0 no effect, 100 complete control)
[13] = preemergence, 500 g ai/ha, visual injury, 0 to 100 scale (0 no effect, 100 complete control)

| Structure (SMILES) | Barnyardgrass plant response rating (barnyardgrass [1]; [3]) | Barnyardgrass plant response rating (barnyardgrass [1]; [4]) | Barnyardgrass plant response rating (barnyardgrass [1]; [5]) | Plant response rating, Barnyardgrass (barnyardgrass [1]; [6]) | Plant response rating, Foxtail, Giant (giant foxtail; [8]) | Foxtail, Giant plant response rating (giant foxtail; [9]) | Plant response rating, Barnyardgrass (barnyardgrass [2]; [8]) | Barnyardgrass plant response rating (barnyardgrass [2]; [9]) | Plant response rating, Pigweed (redroot pigweed; [8]) | Pigweed plant response rating (redroot pigweed; [9]) | Ducksalad plant response rating (ducksalad; [3]) | Ducksalad plant response rating (ducksalad; [4]) | Ducksalad plant response rating (ducksalad; [5]) | Plant response rating, Ducksalad (ducksalad; [6]) | Plant response rating, Velvetleaf (velvetleaf; [8]) | Velvetleaf plant response rating (velvetleaf; [9]) | Velvetleaf plant response rating (velvetleaf; [11]) | Foxtail, Giant plant response rating (giant foxtail; [7]) | Foxtail, Giant plant response rating (giant foxtail; [11]) | Barnyardgrass plant response rating (barnyardgrass [2]; [7]) | further results |
| --- | --- | --- | --- | --- | --- | --- | --- | --- | --- | --- | --- | --- | --- | --- | --- | --- | --- | --- | --- | --- | --- |
| CCOC(=O)c1cccc(NC(=O)c2cc(C(C)(C)C)nn2CCF)c1 [Compound 79] | 10 | 25 | 25 | 80 | 40 | 10 | 40 | 20 | 85 | 45 | 0 | 0 | 15 | 55 | 50 | 20 | 70 | – | – | – | Plant response rating, Foxtail, Giant (giant foxtail; [7]): 30; Foxtail, Giant plant response rating (giant foxtail; [10]): 40; Plant response rating, Barnyardgrass (barnyardgrass [2]; [7]): 40; Barnyardgrass plant response rating (barnyardgrass [2]; [10]): 35; Plant response rating, Pigweed (redroot pigweed; [7]): 95; Pigweed plant response rating (redroot pigweed; [10]): 90 |
| C=CCn1nc(C(C)(C)C)cc1C(=O)Nc1cccc(C(C)=NO)c1 [Compound 117] | 10 | 20 | 50 | 50 | 55 | 25 | 75 | 30 | 95 | 55 | 0 | 0 | 0 | 60 | 65 | 50 | 65 | 35 | 60 | 45 | Barnyardgrass plant response rating (barnyardgrass [2]; [11]): 70; Pigweed plant response rating (redroot pigweed; [7]): 80; Pigweed plant response rating (redroot pigweed; [11]): 90; Velvetleaf plant response rating (velvetleaf; [7]): 50 |
| CCn1nc(C(C)(C)C)cc1C(=O)Nc1cccc(OC(C)C)c1 [Compound 273] | 20 | – | 60 | 70 | 70 | – | 75 | – | 100 | – | – | – | 75 | 75 | 95 | – | 75 | 50 | 100 | 55 | Barnyardgrass plant response rating (barnyardgrass [1]; [12]): 40; Foxtail, Giant plant response rating (giant foxtail; [13]): 85; Barnyardgrass plant response rating (barnyardgrass [2]; [11]): 95; Barnyardgrass plant response rating (barnyardgrass [2]; [13]): 70; Pigweed plant response rating (redroot pigweed; [7]): 100; Pigweed plant response rating (redroot pigweed; [11]): 100; Pigweed plant response rating (redroot pigweed; [13]): 100; Ducksalad plant response rating (ducksalad; 62 g ai/ha, scale 0 to 100): 20; Ducksalad plant response rating (ducksalad; [12]): 50; Velvetleaf plant response rating (velvetleaf; [7]): 90; Velvetleaf plant response rating (velvetleaf; [13]): 60 |

Source: patent US20060069132A1, “Azolecarboxamide herbicides” (priority 2004, published 2006)
